Here are results for 8 compounds from patent US4225619A, “Substituted fluoracylresorcinols” (Boehringer Ingelheim GmBH, priority 1976, dated 1980).

≈ marks a conversion by molar mass, not a printed value.

What all share (format): cell-based
Test [1] has as its system Streptococcus Aronson. Description: Serial dilution test. To be noted: for MIC: Streptococcus, 18-20 hours at 37° C., read-out: MIC, S.D.T., Streptococcus Aronson. The procedure: (§1) The inhibitory effect on bacteria and fungi was examined by the serial dilution test and the agar diffusion test (hole-test). As bacteria were used: Staphylococcus aureus SG 511, Streptococcus Aronson, Streptococcus pyogenes At CC 86 68; as fungi: Candida albicans AT CC 10231, Trichophyton mentagrophytes AT CC 9129 and Aspergillus niger.
(§2) 2. Glucose broth: for Sc. Aronson and St. pyogenes Recipe see meat extract broth. After sterilization 1 weight percent of glucose is added as a sterile 50% solution.
(§3) The age of the primary cultures is 24 hours for bacteria and 14 days for fungi. The standardization of the suspension of microorganisms is effected using a photometer according to Eppendorf (test tube .phi.14 mm, filter 546 nm) and a suspension for comparison consisting of barium sulfate, this suspension being created by adition of 3.0 ml of 1% barium chloride solution to 97 ml of 1% sulfuric acid. After the standardization the bacteria were further diluted to a concentration of 1:1000 by means of sodium chloride solution, the fungi were used in an undiluted state.
(§4) 40 mgm of the substance were put into a 10 ml measuring flask and filled up to the mark with the solvent (corresponds to a dilution of 1:250=4000 μg/ml). The further dilution series was standardized with distilled water or the respective solvent and the following substance concentrations were prepared: 1000; 250; 62.5 μg/ml.
(§5) The tubes were filled with 4.9 ml of the corresponding liquid nutrient medium. Then 0.1 ml of the substance dilution prepared above was added to each tube, so that the mentioned final concentrations were present. Finally each tube was inoculated with 0.1 ml of the standardized suspension of microorganisms. Control tests merely using the solvent are to be carried out simultaneously.
(§6) Bacteria were incubated at 37° C. for 18-20 hours and fungi at 27° C. for 7 days.
(§7) The measurement is carried out macroscopically defining the minimal inhibitory concentration (the lowest still microbiostatically effective concentration).

The test system of test [2] is Streptococcus pyogenes At CC 86 68. Kind of test: Serial dilution test. To be noted: for MIC: Streptococcus pyogenes, ATCC8668, 18-20 hours at 37° C., read-out: MIC, S.D.T., Streptococcus pyogenes. As for the experimental part: as §1, §2, §3, §4, §5, §6, §7
Test [3] has as its system Staphylococcus aureus SG 511. Description: Serial dilution test. To be noted: for MIC: Staphylococcus aureus, SG511, 18-20 hours at 37° C., read-out: MIC, S.D.T., Staphylococcus aureus SG 511. As for the experimental part: as §1
1. Meat extract broth: for St. aureus SG 511
as §3, §4, §5, §6, §7

Test [4] has as its system Streptococcus Aronson. Description: Agar diffusion test (hole-test). To be noted: 18-20 hours at 37° C., read-out: MIC, A.D.T., Streptococcus Aronson. As for the experimental part:
as §1
(§8) 2. Glucose agar: for Sc. Aronson and St. pyogenes Recipe see meat extract agar. After sterilization 1 weight percent of glucose is added as a sterile 50% solution.
(§9) The age of the primary cultures is 24 hours for bacteria and 14 days for fungi. The standardization of the suspension of microorganisms is effected using a photometer according to Eppendorf (test tube .phi.14 mm, filter 546 nm) and a suspension for comparison consisting of barium sulfate, this suspension being created by addition of 3.0 ml of 1% barium chloride solution to 97 ml of 1% sulfuric acid. After the standardization St. aureus SG 511 was diluted 1:1000 and Sc. pyogenes and Aronson 1:100 by means of sodium chloride solution. The fungi were used in an undiluted state.
(§10) 40 mgm of the substance were put into a 10 ml measuring flask and filled up to the mark with the solvent (corresponds to a dilution of 1:250=4000 μg/ml).
(§11) The dilutions to the concentrations under test were effected with distilled water or the respective solvent.
(§12) 19 ml of the nutrient medium were filled into sterile Petri dishes of a diameter of 8 cm and dried. Subsequently the agar plates were charged with 4 ml of seed agar. 100 ml of seed agar contain 1.25 ml of the suspension of microorganisms, an agar plate thus containing 0.05 ml of the suspension of microorganisms. After solidification of the agar, 5 holes of a diameter of 5 mm were punched into the plates and filled with 0.05 ml of the correspondingly concentrated substance solution.
(§13) Control tests merely using the solvent are to be carried out simultaneously.
as §6
(§14) The diameter of the area of inhibition in mm was measured after having deducted the diameter of the hole.
Background: In agar diffusion tests the substance spreads into inoculated agar from a disc or well.

Test [5] concerns Streptococcus pyogenes At CC 86 68. Description: Agar diffusion test (hole-test). Conditions: ATCC8668, 18-20 hours at 37° C., read-out: MIC, A.D.T., Streptococcus pyogenes. The procedure: as §1, §8, §9, §10, §11, §12, §13, §6, §14
Another test deals with Corynebacterium acnes. Kind of test: Serial dilution test for Corynebacterium acnes. Conditions: for MIC: Cutibacterium acnes, 37° C. for 48 hours, read-out: MIC, S.D.T., Corynebacterium acnes; for Concentration with reduced growth (value in brackets), S.D.T., Corynebacterium acnes: reduced growth at this concentration. The procedure:
Serial dilution test for Corynebacterium acnes and Pityrosporum ovale Nutrient medium
For Corynebacterium acnes: thioglycolate-broth for Pityrosporum ovale: Littmann's broth, 5 ml per tube.
Suspension of microorganisms in 0.9% sodium chloride solution, standardized using a photometer according to Eppendorf by means of a suspension for comparison consisting of barium sulfate, for Corynebacterium acnes in a dilution of 1:100, for Pityrosporum ovale in an undiluted state. 0.1 ml of the suspensions was used per test tube. Dimethyl sulfoxide served as a solvent for the substances.
The suspension with Corynebacteria acnes was incubated at 37° C. for 48 hours, the suspension of Pityrosporum ovale at 27° C. for 7 days. The reading was effected by macroscopic evaluation of the growth of microorganisms and registration of the minimal inhibitory concentration.

For test [6], the system named is Staphylococcus aureus SG 511. Kind of test: Agar diffusion test (hole-test). Conditions: SG511, 18-20 hours at 37° C., read-out: MIC, A.D.T., Staphylococcus aureus SG 511. As for the experimental part: as §1
1. Meat extract agar: for St. aureus SG 511
as §9, §10, §11, §12, §13, §6, §14

The test system of the next test is HeLa-cell culture. Kind of test: Inhibition of HeLa cell cultures. Conditions: Homo sapiens, 72 h, 37° C. for 3 days, 5% carbon dioxide; for IC50: read-out: ED50, HeLa cell culture; for minimal effective concentration: read-out: Minimal inhibitory concentration, HeLa cell culture. The procedure: Measurement of the inhibition of cell cultures
HeLa-cell culture was treated with trypsin and adjusted to a cell number of 150,000 cells/ml of fresh medium. The substance was always dissolved in the same quantity of dimethyl sulfoxide and then further diluted with growth medium. 0.1 ml of the substance-dilutions were added to each well of microtiter plates and then 0.2 ml of cell suspension were added (4 wells per dilution). Several growth controls containing 0.1 ml of growth medium instead of 0.1 ml of substance dilution were put up. After careful mixing, the cultures were incubated at 37° C. for 3 days in a 5% carbon dioxide atmosphere. The reading was effected in comparison with these controls. The results were given as the percentage of the deficiency and degeneration compared to the growth control. […] The statements are referred to μg of substance per ml of total medium.

Setting [7] is: reduced growth at this concentration.

A word on the MIC: it is the least concentration at which growth counts as inhibited. As to `CC(C)CCc1cc(C(=O)C(F)(F)F)c(O)cc1O` [G, 2,4-Dihydroxy-5-iso-pentyl-trifluoroacetophenone], the MIC in the test on Streptococcus Aronson [1] was 1.25 µg/mL (≈ 4.52 µM); in test [2], 0.31 µg/mL (≈ 1.12 µM); in test [3], 0.31 µg/mL (≈ 1.12 µM); in the test on Streptococcus Aronson [4] it was at most 15.6 µg/mL; in test [5] it was at most 15.6 µg/mL; in the test with Corynebacterium acnes, 1.25 µg/mL (≈ 4.52 µM). In addition, the minimum inhibitory concentration (MIC) in test [6] is at most 15.6 µg/mL. The IC50 with HeLa-cell culture was 5.8 µg/mL (≈ 21 µM). For the same compound, the minimal effective concentration with HeLa-cell culture was 0.78 µg/mL.

As to `CCc1cc(C(=O)C(F)(F)F)c(O)c(Cc2c(O)c(CC)cc(C(=O)C(F)(F)F)c2O)c1O` [R, Methylene-bis-(2,6-dihydroxy-3-ethyl-5-trifluoro-acetyl)-benzene], the MIC with Streptococcus Aronson [1] was 0.31 µg/mL (≈ 0.645 µM); in test [2], 0.005 µg/mL (≈ 0.0104 µM); in test [3], 0.08 µg/mL (≈ 0.167 µM); in the test on Streptococcus Aronson [4], at most 15.6 µg/mL; in test [5] it was at most 15.6 µg/mL; in the test on Corynebacterium acnes, 0.005 µg/mL (≈ 0.0104 µM). Moreover, the MIC in test [6] was at most 15.6 µg/mL.

On to `O=C(c1ccc(O)c(C2CCCCCCCCCCC2)c1O)C(F)(F)F` [L, 2,4-Dihydroxy-3-cyclododecyl-trifluoroacetophenone], for which the MIC was 0.31 µg/mL (≈ 0.832 µM) in the test with Streptococcus Aronson [1]; 0.08 µg/mL (≈ 0.215 µM) in test [2]; 0.31 µg/mL (≈ 0.832 µM) in test [3]; at most 15.6 µg/mL in the test with Streptococcus Aronson [4]; 62.5 µg/mL (≈ 168 µM) in test [5]; 1.25 µg/mL (≈ 3.36 µM) in the test on Corynebacterium acnes. The MIC in test [6] worked out at 62.5 µg/mL (≈ 168 µM). Besides, the “Concentration with reduced growth (value in brackets), S.D.T., Corynebacterium acnes” value in the test on Corynebacterium acnes came out at 0.31 µg/mL.

As to `CCCCCCCCCc1cc(C(=O)C(F)(F)F)c(O)cc1O` [J, 2,4-Dihydroxy-5-n-nonyl-trifluoroacetophenone], the MIC was 5 µg/mL (≈ 15 µM) in the test with Streptococcus Aronson [1]; 1.25 µg/mL (≈ 3.76 µM) in test [2]; 5 µg/mL (≈ 15 µM) in test [3]; at most 15.6 µg/mL with Streptococcus Aronson [4]; at most 15.6 µg/mL in test [5]; 0.02 µg/mL (≈ 0.0602 µM) with Corynebacterium acnes. Also, in test [6], the MIC was at most 15.6 µg/mL. Further, the “Concentration with reduced growth (value in brackets), S.D.T., Streptococcus pyogenes” value in test [2] (setting [7]) stood at 0.08 µg/mL. Also, the “Concentration with reduced growth (value in brackets), S.D.T., Staphylococcus aureus SG 511” value in test [3] (setting [7]) worked out at 1.25 µg/mL.

For `O=C(c1ccc(O)c(C2CCCCCC2)c1O)C(F)(F)F` [O, 2,4-Dihydroxy-3-cycloheptyl-trifluoroacetophenone], the MIC was 0.31 µg/mL (≈ 1.03 µM) with Streptococcus Aronson [1]; 0.08 µg/mL (≈ 0.265 µM) in test [2]; 0.31 µg/mL (≈ 1.03 µM) in test [3]; at most 15.6 µg/mL in the test with Streptococcus Aronson [4]; at most 15.6 µg/mL in test [5]; 1.25 µg/mL (≈ 4.14 µM) in the test on Corynebacterium acnes. For the same compound, the MIC in test [6] is at most 15.6 µg/mL. In addition, the “Concentration with reduced growth (value in brackets), S.D.T., Corynebacterium acnes” value with Corynebacterium acnes is 0.31 µg/mL.

With `CCCCC(C)c1c(O)ccc(C(=O)C(F)(F)F)c1O` (centres unmarked) [K], the minimal inhibitory concentration (MIC) was 1.25 µg/mL (≈ 4.31 µM) in the test on Streptococcus Aronson [1]; 0.31 µg/mL (≈ 1.07 µM) in test [2]; 1.25 µg/mL (≈ 4.31 µM) in test [3]; at most 15.6 µg/mL in the test with Streptococcus Aronson [4]; at most 15.6 µg/mL in test [5]; 0.08 µg/mL (≈ 0.276 µM) with Corynebacterium acnes. For the same compound, in test [6], the MIC was at most 15.6 µg/mL. The IC50 in the test with HeLa-cell culture amounted to 2.27 µg/mL (≈ 7.82 µM). Moreover, the minimal effective concentration in the test on HeLa-cell culture stood at 0.78 µg/mL.

In the case of `CCCCCCCCC(C)c1c(O)ccc(C(=O)C(F)(F)F)c1O` (centres unmarked) [M], the MIC is 20 µg/mL (≈ 57.7 µM) in the test on Streptococcus Aronson [1]; 1.25 µg/mL (≈ 3.61 µM) in test [2]; 1.25 µg/mL (≈ 3.61 µM) in test [3]; at most 15.6 µg/mL with Streptococcus Aronson [4]; at most 15.6 µg/mL in test [5]; 0.31 µg/mL (≈ 0.895 µM) with Corynebacterium acnes. The minimal inhibitory concentration (MIC) in test [6] worked out at 250 µg/mL (≈ 722 µM). Also, in the test on Streptococcus Aronson [1] (setting [7]), the “Concentration with reduced growth (value in brackets), S.D.T., Streptococcus Aronson” value turned out to be 1.25 µg/mL.

`CC1CC(C)CC(c2cc(C(=O)C(F)(F)F)c(O)cc2O)C1` (centres unmarked) [I, 2,4-Dihydroxy-5-(3',5'-dimethyl)-cyclohexyl-tri-fluoroacetophenone]: the minimum inhibitory concentration (MIC) in the test on Streptococcus Aronson [1] is 0.08 µg/mL (≈ 0.253 µM); in test [2], 0.31 µg/mL (≈ 0.98 µM); in test [3], 0.31 µg/mL (≈ 0.98 µM); in the test with Streptococcus Aronson [4], at most 15.6 µg/mL; in test [5], at most 15.6 µg/mL; with Corynebacterium acnes, 0.08 µg/mL (≈ 0.253 µM). For the same compound, in test [6], the MIC was at most 15.6 µg/mL.
